Data reported in patent US7858578B2, “Methods of inducing neuronal growth by a Fucose-α(1-2) galactose (fuc-α(1-2) gal) moiety and a lectin” (California Institute of Technology, priority 2004, dated 2010).
Where a SMILES comes first, the peptide text is derived from it. The star is where a group is joined. Cbz = O=C(OCc1ccccc1)*

Experiments:
hippocampal neurons [1] = assay: Binding of biotinylated probe to cultured hippocampal neurons (streptavidin-AlexaFluor 488 imaging); assay type: cell-based, rat; settings: 3 mM, 10 μM PAO
Procedure: Hippocampal neurons were cultured using a procedure modified from Goslin and Banker, in Culturing Nerve Cells, Banker, G., Goslin, K., Eds., pp. 251-281, MIT Press: Cambridge, Mass. 1991. Briefly, the hippocampi of embryonic day 18 (E18) rats were dissected and transferred to 4.5 mL of ice-cold Calcium and Magnesium Free-Hank's Balanced Salt Solution (CMF-HBSS). Trypsin (2.5%, no EDTA) was added to 5 mL, and the tissue was incubated for 15 min at 37° C. The trypsin solution was removed and the tissue sample washed three times with 5 mL of CMF-HBSS. Cells were then dissociated from the tissue in 1 mL of CMF-HBSS by passing through a P1000 pipet tip twenty times. The cells were counted, diluted into Minimal Eagle's Medium (MEM) plus 10% fetal bovine serum, and seeded on poly-DL-ornithine-coated glass coverslips (Carolina Biological) at a density of 75 cells/mm2 (100 μL/coverslip) for 30 min. After this time, 500 μL of supplemented Neurobasal medium (47.5 mL Neurobasal medium without Lglutamine; 0.5 mL L-glutamine (200 mM); 0.5 mL penicillin/streptomycin (10,000 U/mL); 0.5 mL antibiotic-antimycotic (100× stock), 1.0 mL B-27 serum-free supplement (50× stock); 50 μL of 0.5 M kynurenic acid in 1 N NaOH) was added to each coverslip. The use of kynurenic acid to block glutamate receptor ion channels and enhance neuronal health and survival is standard protocol for neuronal cultures. Id. The cultures were maintained in 5% CO2 at 37° C. in supplemental Neurobasal medium.
After 23 days in culture, the medium was replaced, and neurons were treated with the endocytosis inhibitor phenylarsine oxide (PAO; 4 μL in DMSO, final concentration 10 μM) (Nouel, D., et al., J. Neurosci. 17:1795-1803 (1997)) and either compound III (24 μL in PBS, final concentration 3 mM), or biotin (24 μL in PBS, final concentration 3 mM), in supplemented Neurobasal medium (400 μL final volume) for 1 h at 37° C., 5% CO2. After 1 h, neurons were rinsed 2 times with PBS, fixed in 4% paraformaldehyde for 20 min at rt, washed 2 times with PBS, permeabilized in 0.3% Triton X-100 for 5 min at rt, and washed 2 times with PBS. Non-specific binding was blocked with 3% BSA for 1 h at rt and then rinsed one time with PBS. Compound III was detected with streptavidin conjugated to AlexaFluor 488 (1:200, Molecular Probes). Dye-conjugated streptavidin was added in 3% BSA for 1 h at 37° C. and the excess reagent washed off 5 times with PBS. Coverslips were then mounted onto slides with Vectashield, sealed, and imaged using confocal laser microscopy. Results can be seen in FIG. 2.
De-lipidation was performed on some samples following the protocol of Yavin, E. et al., J. Neurosci. Res. 9:229-237 (1983). Briefly, after 23 days in culture, cells were rinsed once with PBS then exposed to MeOH/CHCl3 (½ by vol.) for 15 min at −80° C. This procedure fixes the cells to the coverslip and extracts cellular lipids. After removing the MeOH/CHCl3 mixture, coverslips were dried at rt then incubated with 3% BSA for 1 hr at rt. After one rinse with PBS, neurons were treated with PAO and the procedure described above was followed.

[2] = test system: binding of antibody A46-B/B10 to bovine synapsin I; assay: Competition ELISA; settings: competitors 0.078-5 mM
Procedure: To gain insight into the structural determinants recognized by antibody A46-B/B10, competition enzyme-linked immunosorbent assay (ELISA) experiments were performed using a series of fucose analogs (FIG. 12 A, B). Purified bovine synapsin Ia/Ib (Ueda, T., et al., J. Biol. Chem., 252:5155-5163 (1977)) was a supplied by Drs. P. Greengard and A. Nairn (The Rockefeller University, New York, N.Y.). The protein was immobilized on a microtiter plate by incubation in 50 mM NaHCO3, pH 9.0 at 4° C. overnight. Antibody A46-B/B10 (0.02 mg/mL) and the competitors (0.078-5 mM) were incubated in TBST (50 mM Tris-HCl pH 7.4, 150 mM NaCl, 0.1% Tween-20) at 4° C. overnight and then transferred to the microtiter plate. The wells were washed with TBST and incubated with a goat anti-mouse secondary antibody conjugated to alkaline phosphatase (1:500) at rt for 1 h. The wells were washed with TBST and developed with p-nitrophenyl phosphate. Inhibition curves were generated using PRISM (GraphPAD Software, Inc.).
Synapsin Ia and Ib from bovine brain were immobilized on a microtiter plate, and binding of antibody A46-B/B10 to synapsin was assessed in the presence of varying concentrations of the competitors (see FIG. 12A for structures of the competitor molecules). […] (Haselhorst, T., et al., J. Am. Chem. Soc., 123:10705-10714 (2001))

hippocampal neurons [3] = assay: Effects of deoxy-galactose sugars on neuronal morphology (anti-tau immunostaining); assay type: cell-based, rat; settings: for rescue of 2-dGal effects: 75 mM Gal for 2 days after 15 mM 2-dGal for 2 days
Procedure: Hippocampal neurons were plated on poly-DL-ornithine-coated glass coverslips as described above. After one day in culture, the medium was replaced with fresh medium, and the small molecules (2-dGal, 3-Deoxy-D-Galactose (3-dGal), or D-Galactose (Gal)) were added. A dose-response experiment was initially performed to determine the minimum concentration of 2-dGal needed to elicit an effect. Neurons were treated with varying concentrations of 2-dGal (1, 5, 10, 15, or 30 mM in 25 μL PBS with 475 μL of supplemented Neurobasal medium) for 2 days before immunostaining with anti-tau antibodies as described above.
Cells were treated as above under 4 different conditions: (1) no treatment for 2 days, (2) incubation with 15 mM 2-dGal for 2 days, (3) incubation with 15 mM 2-dGal for 2 days followed by incubation with 75 mM Gal for 2 days, or (4) incubation with 15 mM 3-dGal for 2 days. After adding the small molecules, cultures were incubated at 37° C., 5% CO2, then washed once with PBS, and immunostained with anti-tau antibody as described above.

hippocampal slices = settings: cited from earlier work
[4] = test system: synapsin I-transfected HeLa cells; assay: Synapsin degradation with inhibitors of protein degradation with or without 2-dGal; assay type: cell-based; settings: with 2-dGal, 15 h
Procedure: (§1) FIG. 19. Inhibition of synapsin fucosylation using 2-dGal decreases the expression and half-life of synapsin I. (A) Effects of 2-dGal and 6-dGal on synapsin fucosylation (left panel) and synapsin expression (right panel) levels. Synapsin I-transfected HeLa cells were treated with the indicated amounts of the deoxy sugar for 24 h. Fucosylation and synapsin expression levels were measured by immunoblotting with antibody A46-B/B10 and an anti-synapsin antibody, respectively. […] Synapsin I-transfected HeLa cells were treated with 2-dGal or a vehicle control (PBS), pulse labeled with ^35S-L-cysteine and ^35S-L-methionine as described in Materials and Methods, and chased for the indicated times. ^35S-labeled synapsin levels were measured by autoradiography. (C) Inhibition of the calcium-activated protease calpain using a calpain inhibitor peptide or calpeptin protects synapsin from degradation. […] Synapsin I-transfected HeLa cells were treated with the indicated inhibitors or vehicle control (DMSO, PBS or MeOH) in the presence or absence of 2-dGal for 15 h. Following lysis, the cell extracts were analyzed for synapsin expression levels by immunoblotting.
To investigate the molecular mechanisms responsible for synapsin degradation, cells expressing synapsin were treated with various inhibitors of protein degradation in the presence or absence of 2-dGal. Specifically, the lysosomal inhibitors bafilomycin A1 and ammonium chloride, the proteasome inhibitor MG132, and two inhibitors of the calcium-dependent protease calpain, were used.

[5] = test system: synapsin I expressed in HeLa cells; assay: Synapsin fucosylation and expression in synapsin I-transfected HeLa cells (immunoblotting); assay type: cell-based; settings: deoxy sugar for 24 h
Procedure: as §1
The effects of 2-dGal on synapsin I expressed in HeLa cells were next investigated. Cell lysates containing equivalent amounts of transfected protein were resolved by SDS-PAGE, and the fucosylation and protein levels of synapsin were measured by immunoblotting, using methods described above.

E18 cortical neurons = assay: Expression of synaptic proteins in cultured neurons (Western blotting); assay type: cell-based; settings: 15 mM for 3 days, neurons 7 DIV
Procedure: FIG. 20. […] (A) E18 cortical neurons cultured for 7 DIV were treated with 15 mM of 2-dGal or 6-dGal for 3 days. Protein lysates were analyzed by Western blotting using antibodies selective for the indicated proteins. A significant reduction in the expression of synapsin Ib was observed, while other synapse-associated proteins were unaffected by the 2-dGal treatment. (B) Neurite retraction caused by 2-dGal is reduced in synapsin-deficient mice. Neurons from synapsin I-deficient or wild-type mice were cultured for 2 days, treated with 2-dGal for 3 days, and analyzed for mean neurite length.
To examine the effects of 2-dGal on synapsin fucosylation in neurons, neurons were cultured for 7 DIV to allow for adequate expression of synapsin and subsequently treated with 2-dGal or 6-dGal for comparison. Cells were lysed and immunoblotted as described above. […] The expression of other synaptic proteins, including NSF, the synaptic vesicle protein synaptotagmin, the presynaptic plasma membrane protein syntaxin, and the postsynaptic proteins PSD-95, the AMPA receptor GluR1 subunit and spinophilin, was unchanged by the 2-dGal treatment.

O=C(O)CCCC[C@@H]1SC[C@@H]2NC(=O)N[C@@H]21 [biotin]
labeling of neurons after de-lipidation (hippocampal neurons [1]; neurons de-lipidated with MeOH/CHCl3): minor binding of the biotin alone to the cell body but not the neurites | binding to hippocampal neurons (hippocampal neurons [1]; 1 h, E18 neurons 23 days in vitro): this binding is not between the biotin moieties and the neuron

CC(=O)N[C@H]1C(O)O[C@H](CO)[C@@H](O)[C@@H]1O (stereo partly drawn) [N-acetyl-D-glucosamine]
inhibition of antibody binding to synapsin Ia and Ib [2]: did not compete

CCO[C@@H]1O[C@H](CO)[C@H](O)[C@H](O)[C@H]1O[C@@H]1O[C@@H](C)[C@@H](O)[C@@H](O)[C@@H]1O [Fucα(1-2)Gal-β-OEt, Ethyl O-(α-L-fucopyranosyl)-(1-2)-β-D-galactopyranoside]
inhibition of antibody binding to synapsin Ia and Ib [2]: selectively inhibited

O=C[C@H](O)C[C@@H](O)[C@H](O)CO [Compound 3-dGal, 3-Deoxy-D-Galactose]
effect on neurite outgrowth (hippocampal neurons [3]; 15 mM for 2 days): no impact on neurite outgrowth

CCOC1OC(C)C(O)C(O)C1O [L-Fuc-α-OEt, ethyl α/β-L-fucopyranoside]
IC50 (compared in words) [2]: comparable to that of the disaccharide Fucα(1-2)Gal-β-OEt | inhibition of antibody binding to synapsin Ia and Ib [2]: effective at inhibiting antibody binding

2′fucosyllactose
effect on LTP (hippocampal slices): enhance LTP

CCCC[C@@H](C=O)NC(=O)[C@H](CC(C)C)NC(=O)OCc1ccccc1 [calpeptin]
rescue of synapsin from 2-dGal-induced degradation [4]: rescued the effects of 2-dGal

CC(C)C[C@@H](C=O)NC(=O)[C@H](CC(C)C)NC(=O)[C@H](CC(C)C)NC(=O)OCc1ccccc1 [MG132] (Cbz-Leu-Leu-Leu-aldehyde)
rescue of synapsin from 2-dGal-induced degradation [4]: no effect on synapsin degradation

C[C@H](O)[C@@H](O)[C@@H](O)[C@H](O)C=O [L-fucose]
IC50 (compared in words) [2]: comparable to that of the disaccharide Fucα(1-2)Gal-β-OEt | inhibition of antibody binding to synapsin Ia and Ib [2]: effective at inhibiting antibody binding | effect on LTP (hippocampal slices): enhance LTP

O=C[C@H](O)[C@@H](O)[C@H](O)[C@H](O)CO [D-glucose]
inhibition of antibody binding to synapsin Ia and Ib [2]: did not compete

O=C[C@H](O)[C@@H](O)[C@@H](O)[C@H](O)CO [Gal, D-Galactose]
rescue of 2-dGal effects (hippocampal neurons [3]): rescued | rescue of 2-dGal effects (hippocampal neurons [3]; listed as D-galactose): regeneration of the neuronal processes | inhibition of antibody binding to synapsin Ia and Ib [2]: did not compete

Cl.N [ammonium chloride]
rescue of synapsin from 2-dGal-induced degradation [4]: no effect on synapsin degradation

C[C@@H](O)[C@H](O)[C@H](O)[C@@H](O)C=O [Compound 6-dGal, 6-deoxy-D-galactose]
fucosylation level of synapsin [5]: no effect | level of synapsin protein [5]: no effect | expression of synapsin I (E18 cortical neurons): no effect

CO/C1=C\C(C)=C\[C@@H](C)[C@@H](O)[C@@H](C)C/C(C)=C/C=C/[C@H](OC)[C@@H]([C@@H](C)[C@@H](O)[C@H](C)[C@@]2(O)C[C@@H](O)[C@H](C)[C@@H](C(C)C)O2)OC1=O [bafilomycin A1]
rescue of synapsin from 2-dGal-induced degradation [4]: no effect on synapsin degradation
